pIC50: −log10 of the molar value. The source made the active and inactive calls. No cut-off for these calls is given here.
Tests used:
[1] = Toxicity in male BALB/c nude mouse xenografted with human HT-29 cells assessed as tolerance at 40 mg/kg, ip administered once daily for 14 days; type: organism-based; details: in vivo, 336 h, time 14 day
LoVo [2] = experiment: Cell cycle arrest in human LoVo cells assessed as accumulation of cells at S phase cells at 10 nM incubated for 24 hrs by […]PI staining based flow cytometric analysis (reference value: 54.99 %); type: functional
Mitochondrial membrane [3] = experiment: Induction of mitochondrial membrane potential loss in human RKO cells assessed as decrease in TMRE positive cells at 10 to 90 nM incubated for 24 hrs by TMRE staining based flow cytometric analysis; type: cell membranes; details: dose 10-90 nM
RKO [4] = experiment: Cell cycle arrest in human RKO cells assessed as accumulation of cells at G1 phase at 90 nM incubated for 24 hrs by […]PI staining based flow cytometric analysis (reference value: 35.29 %); type: functional
HT-29 = experiment: Antiproliferative activity against human HT-29 cells assessed as inhibition of cell growth incubated for 72 hrs by MTT assay; type: functional, cell-based; details: HT-29, 72 h
HGC-27 = experiment: Antiproliferative activity against human HGC-27 cells assessed as inhibition of cell growth incubated for 72 hrs by MTT assay; type: functional, cell-based; details: HGC-27, 72 h
[5] = Tmax in male Sprague-Dawley rat at 50 mg/kg, ip measured after 24 hrs by LC-MS/MS analysis; type: ADME, organism-based; details: in vivo
LoVo [6] = experiment: Cell cycle arrest in human LoVo cells assessed as accumulation of cells at G2 phase cells at 90 nM incubated for 24 hrs by […]PI staining based flow cytometric analysis (reference value: 14.84 %); type: functional
LoVo [7] = experiment: Cell cycle arrest in human LoVo cells assessed as accumulation of cells at S phase cells at 90 nM incubated for 24 hrs by […]PI staining based flow cytometric analysis (reference value: 54.99 %); type: functional
LoVo [8] = experiment: Cell cycle arrest in human LoVo cells assessed as accumulation of cells at G2 phase cells at 10 nM incubated for 24 hrs by […]PI staining based flow cytometric analysis (reference value: 14.84 %); type: functional
RKO [9] = experiment: Cell cycle arrest in human RKO cells assessed as accumulation of cells at G2 phase at 90 nM incubated for 24 hrs by […]PI staining based flow cytometric analysis (reference value: 20.07 %); type: functional
[10] = Toxicity in male BALB/c nude mouse xenografted with human LoVo cells assessed as body weight loss at 40 mg/kg, ip administered once daily for 14 days; type: organism-based; details: in vivo, 336 h, time 14 day
[11] = Toxicity in male BALB/c nude mouse xenografted with human LoVo cells assessed as tolerance at 40 mg/kg, ip administered once daily for 14 days; type: organism-based; details: in vivo, 336 h, time 14 day
RKO [12] = experiment: Cell cycle arrest in human RKO cells assessed as accumulation of cells at S phase at 90 nM incubated for 24 hrs by […]PI staining based flow cytometric analysis (reference value: 43.36 %); type: functional
RKO [13] = experiment: Antiproliferative activity against human RKO cells assessed as reduction in cell viability measured after 24 hrs; type: functional, cell-based; details: dose 40-200 nmol/L
LoVo [14] = experiment: Antiproliferative activity against human LoVo cells assessed as reduction in cell viability measured after 24 hrs; type: functional, cell-based; details: dose 40-200 nmol/L
LoVo [15] = experiment: Antitumor activity against human LoVo cells xenografted in male BALB/c nude mouse assessed as tumor growth inhibition at 40 mg/kg, ip administered once daily for 14 days relative to control; type: functional; details: 336 h, time 14 day, read-out: TGI
LoVo [16] = experiment: Induction of morphological changes in human LoVo cells assessed as appearance of condensed morphology incubated for 24 hrs by Giemsa staining based microscopic analysis; type: functional, cell-based; details: dose 10-90 nM
Mitochondrial membrane [17] = experiment: Induction of mitochondrial membrane potential loss in human LoVo cells assessed as decrease in TMRE positive cells at 10 to 90 nM incubated for 24 hrs by TMRE staining based flow cytometric analysis; type: cell membranes; details: dose 10-90 nM
RKO [18] = experiment: Cell cycle arrest in human RKO cells assessed as accumulation of cells at G1 phase at 30 nM incubated for 24 hrs by […]PI staining based flow cytometric analysis (reference value: 35.29 %); type: functional
[19] = Chemical stability of compound in McCoy's 5A cell culture medium containing 1 % DMSO assessed as retention time at 100 uM incubated for 24 hrs by HPLC analysis; type: physicochemical
LoVo [20] = experiment: Cell cycle arrest in human LoVo cells assessed as accumulation of cells at G1 phase cells at 90 nM incubated for 24 hrs by […]PI staining based flow cytometric analysis (reference value: 29.69 %); type: functional
Mitochondrial membrane [21] = experiment: Induction of mitochondrial membrane potential loss in human RKO cells assessed as TMRE positive cells at 90 nM incubated for 24 hrs by TMRE staining based flow cytometric analysis (reference value: 95.54 %); type: cell membranes
[22] = Half-life in male Sprague-Dawley rat at 50 mg/kg, ip measured after 24 hrs by LC-MS/MS analysis; type: ADME, organism-based; details: in vivo
[23] = Potency index, ratio of topotecan IC50 to test compound IC50 for antiproliferative activity against human RKO cells assessed as inhibition of cell growth incubated for 72 hrs by MTT assay; type: functional
RKO [24] = experiment: Antiproliferative activity against human RKO cells assessed as inhibition of cell growth incubated for 72 hrs by MTT assay; type: functional, cell-based
LoVo [25] = experiment: Cell cycle arrest in human LoVo cells assessed as accumulation of cells at G2 phase cells at 30 nM incubated for 24 hrs by […]PI staining based flow cytometric analysis (reference value: 14.84 %); type: functional
RKO [26] = experiment: Cell cycle arrest in human RKO cells assessed as accumulation of cells at G2 phase at 10 nM incubated for 24 hrs by […]PI staining based flow cytometric analysis (reference value: 20.07 %); type: functional
[27] = Apparent clearance during terminal phase in male Sprague-Dawley rat at 50 mg/kg, ip measured after 24 hrs by LC-MS/MS analysis; type: ADME, organism-based; details: in vivo, read-out: CLz/F (converted)
[28] = AUC (0 to t) in male Sprague-Dawley rat at 50 mg/kg, ip measured after 24 hrs by LC-MS/MS analysis; type: ADME, organism-based; details: in vivo
RKO [29] = experiment: Induction of apoptosis in human RKO cells assessed as apoptosis rate at 90 nM incubated for 24 hrs by Annexin V/PI staining based flow cytometric analysis (reference value: 4.87 %); type: functional

## CC(C)(C)OC(=O)N[C@@H](CCC(N)=O)C(=O)Oc1ccc2[nH]c3c(c2c1)CCN1C(=O)c2cc(F)ccc2N(c2cccc(F)c2)[C@H]31
[1]
  Activity: Non-toxic
LoVo [2]
  Activity: 45.15%
Mitochondrial membrane [3]
  Activity: Active
RKO [4]
  Activity: 26.83%
HT-29
  pIC50: 6.89
HGC-27
  pIC50: 6.96
[5]
  Tmax: 1 h
LoVo [6]
  Activity: 19.93%
LoVo [7]
  Activity: 53.62%
LoVo [8]
  Activity: 27.11%
RKO [9]
  Activity: 21.72%
[10]
  Activity: Non-toxic
[11]
  Activity: Non-toxic
RKO [12]
  Activity: 49.95%
RKO [13]
  Activity: Dose-dependent-effect
LoVo [14]
  Activity: Dose-dependent-effect
LoVo [15]
  inhibition in vivo at 40 mg/kg: 82.5%
LoVo [16]
  Activity: Dose-dependent-effect
Mitochondrial membrane [17]
  Activity: Active
RKO [18]
  Activity: 16.95%
[19]
  Retention_time: 8.63 min
LoVo [20]
  Activity: 25.84%
Mitochondrial membrane [21]
  Activity: 85.1%
[22]
  half-life: 1.38 h
[23]
  Ratio IC50: 3.4
RKO [24]
  pIC50: 7.30
LoVo [25]
  Activity: 61.56%
RKO [26]
  Activity: 27.14%
[27]
  CL/F: 57.2 mL/min/kg
[28]
  AUC(0-t) at 24 h: 14600 ng·h/mL
RKO [29]
  Activity: 12.25%
